Laboratory results from patent US20030109523A1, “Bicyclic antagonists selective for the alphavbeta3 integrin” (Wyeth, priority 1999, published 2003).
Where a name gives a salt, the structure may show the parent alone. Read-outs that look alike come from different tables or passages of the source. Ends that are not written are not given here. Peptide text beside a SMILES is read from it.

Experiments:
[1] = biological target: T1, Vitronectin Receptor (αVβ3) (Homo sapiens, UniProt P05106+P06756); assay: Vitronectin Receptor (αVβ3) Binding Test Procedure
T1 construct: expressed in transfected cells; host or cells: 512P5 cells (plasma membrane preparation)
T1 sequence (P06756 31-889 limits assumed): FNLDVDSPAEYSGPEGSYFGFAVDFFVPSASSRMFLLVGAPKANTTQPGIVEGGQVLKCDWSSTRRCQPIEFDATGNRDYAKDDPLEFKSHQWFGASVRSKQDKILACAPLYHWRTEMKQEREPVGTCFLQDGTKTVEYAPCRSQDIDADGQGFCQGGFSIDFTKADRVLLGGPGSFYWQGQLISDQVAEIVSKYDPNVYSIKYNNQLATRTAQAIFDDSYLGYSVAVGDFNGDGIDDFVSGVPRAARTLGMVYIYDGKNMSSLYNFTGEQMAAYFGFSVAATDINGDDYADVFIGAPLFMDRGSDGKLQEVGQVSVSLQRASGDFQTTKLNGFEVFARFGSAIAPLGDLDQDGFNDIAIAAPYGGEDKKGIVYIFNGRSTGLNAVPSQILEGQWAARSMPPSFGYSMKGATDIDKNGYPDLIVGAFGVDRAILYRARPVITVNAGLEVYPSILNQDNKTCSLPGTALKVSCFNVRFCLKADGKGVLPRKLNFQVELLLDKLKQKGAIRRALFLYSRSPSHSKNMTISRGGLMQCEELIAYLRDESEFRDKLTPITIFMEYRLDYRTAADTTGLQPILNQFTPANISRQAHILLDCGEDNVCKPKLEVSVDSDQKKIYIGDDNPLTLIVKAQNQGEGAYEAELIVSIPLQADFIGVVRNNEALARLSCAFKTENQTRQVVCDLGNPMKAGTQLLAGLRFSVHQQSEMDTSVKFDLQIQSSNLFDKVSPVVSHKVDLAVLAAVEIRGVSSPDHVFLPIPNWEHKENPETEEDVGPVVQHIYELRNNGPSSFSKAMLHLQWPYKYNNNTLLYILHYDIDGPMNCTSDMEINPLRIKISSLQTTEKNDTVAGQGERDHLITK
T1 sequence (P06756 891-1048 partner limits assumed): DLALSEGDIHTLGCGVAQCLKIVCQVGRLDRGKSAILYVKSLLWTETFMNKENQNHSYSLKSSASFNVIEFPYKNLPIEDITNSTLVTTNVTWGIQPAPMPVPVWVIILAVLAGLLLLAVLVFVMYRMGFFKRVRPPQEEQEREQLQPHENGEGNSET
T1 sequence (P05106 27-788): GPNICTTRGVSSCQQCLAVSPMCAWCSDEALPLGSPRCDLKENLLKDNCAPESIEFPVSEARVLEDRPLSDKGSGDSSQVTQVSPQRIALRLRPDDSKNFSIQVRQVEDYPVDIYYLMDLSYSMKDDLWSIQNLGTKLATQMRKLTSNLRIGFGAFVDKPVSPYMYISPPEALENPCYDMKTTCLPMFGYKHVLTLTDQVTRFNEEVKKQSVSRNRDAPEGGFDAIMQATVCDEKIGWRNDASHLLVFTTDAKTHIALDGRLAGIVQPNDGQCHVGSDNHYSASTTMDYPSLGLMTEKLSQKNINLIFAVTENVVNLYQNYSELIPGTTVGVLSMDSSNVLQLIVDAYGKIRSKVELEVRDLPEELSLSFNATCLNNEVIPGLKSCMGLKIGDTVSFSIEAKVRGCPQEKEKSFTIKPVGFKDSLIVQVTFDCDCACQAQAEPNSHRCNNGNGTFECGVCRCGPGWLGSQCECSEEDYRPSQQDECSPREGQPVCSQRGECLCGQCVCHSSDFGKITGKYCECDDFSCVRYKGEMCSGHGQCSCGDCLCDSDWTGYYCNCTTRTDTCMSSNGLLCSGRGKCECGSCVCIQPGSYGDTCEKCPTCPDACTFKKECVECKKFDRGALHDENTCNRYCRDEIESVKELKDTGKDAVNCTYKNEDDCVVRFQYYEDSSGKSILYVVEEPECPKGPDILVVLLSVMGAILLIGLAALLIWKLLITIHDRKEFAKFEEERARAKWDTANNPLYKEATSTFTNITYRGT

[2] = biological target: T2, αVβ3 integrin (Homo sapiens, UniProt P05106+P06756); assay: Osteopontin-αVβ3 Cell Attachment Test Procedure; format: cell-based
T2 construct: αVβ3-expressing cell lines are maintained by standard tissue culture techniques; endogenous in cells; host or cells: αVβ3-expressing cell lines
T2 sequence (P06756 31-889 limits assumed): as the sequence (P06756 31-889 limits assumed) above
T2 sequence (P06756 891-1048 partner limits assumed): as the sequence (P06756 891-1048 partner limits assumed) above
T2 sequence (P05106 27-788): as the sequence (P05106 27-788) above
Experimental: Osteopontin-αVβ3 Cell Attachment Test Procedure
Measuring the effect of compounds on the RGD-dependent attachment of cells to osteopontin mediated by the αVβ3 integrin.
Following incubation the wells were aspirated and washed once with D-PBS; plates can either be used immediately or stored for up to 1 week at 4° C. Prior to assay, the wells were blocked with 1% bovine serum albumin (BSA) in cell suspension media for 1 hour at 37° C. Following the blocking period, wells were aspirated and washed once with D-PBS.
αVβ3-expressing cell lines are maintained by standard tissue culture techniques. […] The cells were pelleted by low-speed centrifugation and washed three times with 0.5 mg/mL trypsin inhibitor in D-PBS (Sigma). The final cell pellet was resuspended in cell suspension media at a concentration of 10^6 cells/mL.
Incubation: 100 μL of diluted test compound was added to osteopontin-coated wells (in triplicate) followed by 100 μL of cell suspension; background cell attachment was determined in uncoated wells. The plate was incubated at 25° C. in a humidified air atmosphere for 1.5 hours. Following the incubation period, the wells were gently aspirated and washed once with D-PBS.
Cell Number Detection: The number of cells attached was determined by an MTT dye conversion assay (Promega) according to the manufacturer's instructions. Briefly, MTT dye was diluted in cell suspension media (15:85) and 100 μL was added to each well. […] The assay plates were covered and incubated at 37° C. in a humidified air atmosphere overnight.
The individual well optical density was expressed as a percentage of the maximal attachment (% Max) wells minus background attachment, and reported as the mean ±standard deviation.

[3] = biological target: T3, αIIbβ3 integrin (Homo sapiens, UniProt P05106+P08514); assay: ADP-Induced Platelet Aggregation; format: cell-based; conditions: for IC50: ADP 20 uM, human platelets; for remaining activity at 200 µM: percent of maximal aggregation; for ability to inhibit ADP induced platelet aggregation: reference peptides, at 200 μM
T3 construct: Human Platelets: Platelet-enriched plasma was obtained commercially from a donor pool; from tissue; host or cells: human platelet-rich plasma from a commercial donor pool
T3 sequence (P08514 32-887 limits assumed): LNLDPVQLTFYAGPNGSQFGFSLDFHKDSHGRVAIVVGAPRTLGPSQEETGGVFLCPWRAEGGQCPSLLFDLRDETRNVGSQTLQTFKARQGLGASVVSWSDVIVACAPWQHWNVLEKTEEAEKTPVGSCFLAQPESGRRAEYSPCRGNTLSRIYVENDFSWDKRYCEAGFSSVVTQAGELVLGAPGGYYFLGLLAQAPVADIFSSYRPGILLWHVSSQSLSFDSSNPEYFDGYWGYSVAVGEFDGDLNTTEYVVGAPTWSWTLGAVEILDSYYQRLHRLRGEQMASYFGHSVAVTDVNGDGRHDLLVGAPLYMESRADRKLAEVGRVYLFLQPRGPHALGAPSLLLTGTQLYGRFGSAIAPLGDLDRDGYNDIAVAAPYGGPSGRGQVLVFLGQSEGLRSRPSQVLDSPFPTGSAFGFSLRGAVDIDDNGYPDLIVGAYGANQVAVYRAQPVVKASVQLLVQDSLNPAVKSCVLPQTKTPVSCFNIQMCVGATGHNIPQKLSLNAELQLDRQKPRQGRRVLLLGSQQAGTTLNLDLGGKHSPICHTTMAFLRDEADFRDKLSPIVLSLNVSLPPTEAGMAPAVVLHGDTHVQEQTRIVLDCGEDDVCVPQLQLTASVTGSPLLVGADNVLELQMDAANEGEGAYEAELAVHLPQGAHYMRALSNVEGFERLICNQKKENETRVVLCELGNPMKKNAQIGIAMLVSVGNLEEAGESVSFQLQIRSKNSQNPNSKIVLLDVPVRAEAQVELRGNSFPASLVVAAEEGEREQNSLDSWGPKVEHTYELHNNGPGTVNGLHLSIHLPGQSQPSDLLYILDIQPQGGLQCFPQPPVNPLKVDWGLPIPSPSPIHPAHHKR
T3 sequence (P08514 891-1039 partner limits assumed): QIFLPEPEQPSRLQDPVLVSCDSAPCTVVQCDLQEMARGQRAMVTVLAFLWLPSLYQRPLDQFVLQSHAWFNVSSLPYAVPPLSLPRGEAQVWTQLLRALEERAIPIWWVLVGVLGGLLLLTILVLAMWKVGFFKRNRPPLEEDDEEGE
T3 sequence (P05106 27-788): as the sequence (P05106 27-788) above
Experimental: Measurement of the Effect of Compounds on ADP-Induced Platelet Aggregation
Measuring the effect of compounds on ADP-induced platelet aggregation mediated by a fibrinogen-αIIbβ3 integrin interaction.
Human Platelets: Platelet-enriched plasma was obtained commercially from a donor pool. The plasma was tested prior to shipment and found to be negative for HIV, HCV and Hepatitis B. Platelet-rich plasma (PRP) was obtained by diluting plasma to an approximate final concentration of 3×10(6) platelets per mL in platelet poor plasma (PPP). PPP was the supernatant of a lowspeed centrifugation of plasma.
Adenosine diphosphate (ADP): ADP was obtained commercially and diluted to 1 mM (stock solution) in distilled, deionized water (ddH2O).
Incubation: PRP and PPP were prewarmed in a water bath at 37° C. […] PRP plus sample compound in a final volume of 500 uL was added to a pre-warmed cuvette in a ChronoLog aggregometer. A control containing PRP and 5 uL of vehicle was treated similarly to the test cuvette; final vehicle concentration was 1%. The two cuvettes were incubated with stirring (1000 rpm) at 37° C. for 5 minutes. Five hundred microliters of PPP was used as a reference (100% aggregation).
Aggregation: To begin the test, ADP was added yielding a final concentration of 20 uM to both samples (plus and minus sample compound). Light transmittance was monitored continuously and compared to the reference cuvette. After five minutes, the test was terminated and the slope and maximal amplitude of the resulting aggregation plot was calculated by the aggregometer.
The percent of maximal aggregation is the ratio of the maximal aggregations of the sample cuvette to the control multiplied by 100 (% Max) and reported as the mean+−standard deviation.

[4] = system: osteoclasts; assay: Osteoclast Bone Pitting; format: cell-based, rat
Experimental: Osteoclast Bone Pitting The test procedure was conducted as described by R. J. Murrills and D. W. […] At this pH the adherent osteoclasts excavate an adequate number of resorption pits for assay purposes. Slices were fixed in 2.5% glutaraldehyde and osteoclasts counted following tartrate-resistant acid phosphatase staining. […] All cells were stripped from the slice by sonication on 0.25M NH4OH and the resorption pits formed by the osteoclasts during the experiment stained with toluidine blue. Resorption pits were quantified by manually counting. The experiments were conducted according to a block design with osteoclasts from each animal exposed to each treatment. Three replicate slices were used per treatment per animal, such that a total of 96 slices were examined for an experiment involving four animals and eight treatments (including control). Several parameters were recorded on a “per slice” basis: number of pits, number of osteoclasts, number of pits per osteoclast, number of fibroblast-like bone cells. SAS or JMP statistical software were used for statistical analysis. […] IC50s were calculated using dose-response curves.

[5] = % Max = percentage of the specific binding, read-out: (αVβ3) RECEPTOR BINDING, % @ concentration
[6] = @ 100 μM, % of maximal attachment, read-out: (αVβ3) CELL ATTACHMENT, % @ concentration
[7] = Table VII, read-out: Platelet Aggregation αIIbβ3 IC50
[8] = attachment of cells to osteopontin, read-out: (αVβ3) IC50 CELL ATTACHMENT
[9] = read-out: (αVβ3) IC50 RECEPTOR BINDING
[10] = reference compounds, Table VI, read-out: IC50 (95% Confidence Interval)
[11] = reference RGD peptides, 125I-Echistatin 50 pM, read-out: IC50

Compound: CCOC(=O)CC1CCc2cc(OCCCNC(=N)N)ccc2C1 (centres unmarked) [Example 31, [6-(3-Guanidinopropoxy)-1,2,3,4-tetrahydro-napthalen-2-yl]-acetic Acid Ethyl Ester]
- remaining activity at 30 µM [1, 5]: 88%
- remaining activity at 100 µM [2, 6]: 100%
- IC50 [3, 7]: 160 µM

Compound: N=C(N)NCCCOc1ccc2c(c1)CC(CC(=O)O)CC2.O=C(O)C(F)(F)F (centres unmarked) [Example 40, [7-(3-Guanidino-propoxy)-1,2,3,4-tetrahydro-napthalen-2-yl]-acetic Acid Trifluoroacetate]
- (αVβ3) RECEPTOR BINDING, % @ concentration [1]: 130% @30
- IC50 [2, 8]: 47 µM
- BONE PITTING INHIBITION ([4]; @ 238 μM): 39%@238
- IC50 [3, 7]: 148 µM

Compound: N=C(N)NCCOc1ccc2c(c1)CCCC(CC(=O)O)C2 (centres unmarked) [Example 61, [2-(2-Guanidino-ethoxy)-6,7,8,9-tetrahydro-5H-benzocyclohepten-6-yl]-acetic Acid Hydrochloride]
- IC50 [1, 9]: 1.7 µM
- IC50 [2, 8]: 62.2 µM
- inhibition at 271 µM ([4]; Rattus norvegicus, Osteoclast, @ 271 μM): 32%
- remaining activity at 200 µM ([3]; Table VII): 85.3%

Compound: N=C(N)NCCCCOc1ccc2c(c1)CCCC(CC(=O)O)C2 (centres unmarked) [Example 63, [2-(4-Guanidino-butoxy)-6,7,8,9-tetrahydro-5H-benzocyclohepten-6-yl]-acetic Acid Trifluoroacetate]
- IC50 [1, 9]: 3.9 µM
- IC50 [2, 8]: 32.8 µM
- remaining activity at 200 µM ([3]; Table VII): 51.5%

Compound: N=C(N)NCCOc1ccc2c(c1)NC(=O)C(CC(=O)O)C2 (centres unmarked) [Example 85, [7-(2-Guanidino-ethoxy)-2-oxo-1,2,3,4-tetrahydro-quinolin-3-yl]-acetic Acid Hydrochloride]
- IC50 [1, 9]: 15.7 µM
- IC50 [2, 8]: 111 µM
- inhibition at 273 µM ([4]; Rattus norvegicus, Osteoclast, @ 273 μM): 33%
- remaining activity at 200 µM ([3]; Table VII): 93.3%

Compound: N=C(N)NCCCC#Cc1ccc2c(c1)NC(=O)C(CC(=O)O)C2 (centres unmarked) [Example 101, [7-(5-Guanidino-pent-1-ynyl)-2-oxo-1,2,3,4-tetrahydro-quinolin-3-yl]-acetic Acid Trifluoroacetate]
- IC50 [1, 9]: 8.9 µM
- IC50 [2, 8]: 11.5 µM
- inhibition at 221 µM ([4]; Rattus norvegicus, Osteoclast, @ 221 μM): 51%
- IC50 [3, 7]: 107 µM

Compound: N=C(N)NCCOc1ccc2cc(CC(=O)O)c(=O)[nH]c2c1 [Example 185, [7-(2-Guanidino-ethoxy)-2-oxo-1,2-dihydro-quinolin-3-yl]-acetic Acid]
- remaining activity at 20 µM ([2]; @ 20 μM, % of maximal attachment, read-out: (αVβ3) CELL ATTACHMENT, % @ concentration): 102%
- remaining activity at 100 µM [2, 6]: 96.8%
- inhibition at 239 µM ([4]; Rattus norvegicus, Osteoclast, @ 239 μM): 58%
- remaining activity at 200 µM ([3]; Table VII): 94.8%

Compound: COC(=O)CC1CCc2cc(OCCCNc3ncccn3)ccc2C1 (centres unmarked) [Example 212, {6-[3-(Pyrimidin-2-ylamino)-propoxy]-1,2,3,4-tetrahydro-naphthalen-2-yl}-acetic Acid Methyl Ester]
- remaining activity at 3 µM ([1]; @ 3 μM, % Max = percentage of the specific binding, read-out: (αVβ3) RECEPTOR BINDING, % @ concentration): 98.7%
- remaining activity at 10 µM ([1]; @ 10 μM, % Max = percentage of the specific binding, read-out: (αVβ3) RECEPTOR BINDING, % @ concentration): 98.3%
- remaining activity at 30 µM [1, 5]: 102%
- remaining activity at 100 µM [1, 5]: 99.3%

Compound: O=C(O)CC1CCc2cc(OCCCNc3ncccn3)ccc2C1 (centres unmarked) [Example 213, {6-[3-(Pyrimidin-2-ylamino)-propoxy]-1,2,3,4-tetrahydro-naphthalen-2-yl}-acetic Acid]
- remaining activity at 100 µM [1, 5]: 54%

Compound: CCOC(=O)CC1CCc2cc(OCCCNC3=NCCCN3)ccc2C1 (centres unmarked) [Example 216, {6-[3-(1,4,5,6-Tetrahydro-pyrimidin-2-ylamino)-propoxy]-1,2,3,4-tetrahydro-naphthalen-2-yl}-acetic Acid Ethyl Ester, Acetic Acid Salt]
- IC50 [1, 9]: 60 µM
- inhibition at 200 µM ([4]; Rattus norvegicus, Osteoclast, @ 200 μM): 95%

Compound: Cc1ccc(S(=O)(=O)NC(=O)CC2CCc3cc(OCCCNC4=NCCCN4)ccc3C2)cc1 (centres unmarked) [Example 217, 4-Methyl-N-({6-[3-(1,4,5,6-tetrahydro-pyrimidin-2-ylamino)-propoxyl]1,2,3,4-tetrahydro-naphthalen-2-yl}-acetyl)-benzenesulfonamide, Trifluoroacetic Acid Salt]
- IC50 [1, 9]: 14.7 µM
- inhibition at 1 µM ([4]; Rattus norvegicus, Osteoclast, @ 1 μM): 51%
- remaining activity at 200 µM ([3]; Table VII): 98%

Compound: N=C(N)NCCOc1ccc2c(c1)CC(CCC(=O)O)C(=O)N2 (centres unmarked) [Example 222, 3-[6-(2-Guanidino-ethoxy)-2-oxo-1,2,3,4-tetrahydro-quinolin-3-yl]-propionic Acid]
- remaining activity at 100 µM [2, 6]: 100%
- inhibition at 22 µM ([4]; Rattus norvegicus, Osteoclast, @ 22 μM): -58%
- remaining activity at 200 µM ([3]; Table VII): 90.3%

Compound: N=C(N)NCCC[C@H](NC(=O)CN)C(=O)NCC(=O)N[C@@H](CC(=O)O)C(=O)N[C@@H](CO)C(=O)N1CCC[C@H]1C(=O)O [GRGDSP, reference compound]
- ability to inhibit ADP induced platelet aggregation ([3]; Table VI): Inactive at 200

Compound: N=C(N)NCCC[C@H](N)C(=O)NCC(=O)N[C@@H](CC(=O)O)C(=O)N[C@@H](Cc1ccccc1)C(=O)O [RGDF, reference compound] (H-RGDF-OH; N-terminus and C-terminus assumed)
- IC50 [3, 10]: 97.6 µM

Compound: Calcitonin: anti-resorptive used in the clinic; reference compound of the bone pitting test is Rat Calcitonin (CGNLSTCMLGTYTQDLNKFHTFPQTSIGVGAP; ends and bridges not checked; cysteine pairing not given here; UniProt P01257 85-116, looked up) [reference compound]
- osteoclast inhibitory activity in this test procedure ([4]; statement in words): significant osteoclast inhibitory activity

Compound: Echistatin [reference compound]
- IC50 [3, 10]: 0.0156 µM

Compound: GRGDNP [GRGDNP, reference compound]
- IC50 [1, 11]: 0.237 µM
- ability to inhibit ADP induced platelet aggregation ([3]; Table VI): Inactive at 200

Compound: GRGDTP [GRGDTP, reference compound]
- IC50 [1, 11]: 0.49 µM
- IC50 [2]: 5.2 µM
- ability to inhibit ADP induced platelet aggregation ([3]; Table VI): Inactive at 200

Compound: GRGESP [reference compound]
- ability to inhibit αVβ3 binding ([1]; reference peptide, at 100 μm): inactive at 100 μm
- ability to inhibit ADP induced platelet aggregation ([3]; Table VI): Inactive at 200

Compound: [7-(2-Guanidino-ethoxy)-2-oxo-1,2-dihydro-quinolin-3-yl]propionic Acid Methyl Ester [Example 246]
- (αVβ3) CELL ATTACHMENT, % @ concentration ([2]; @ 20 μM, % of maximal attachment): 102%@ 20
- (αVβ3) CELL ATTACHMENT, % @ concentration ([2]; @ 100 μM, % of maximal attachment): 84.2%@ 100
- BONE PITTING INHIBITION ([4]; @ 26.2 μM): 52%@ 26.2
